Five compounds from patent US20240067693A1, “POLYPEPTIDES AND USES THEREOF” (MEDIMMUNE LIMITED, priority 2020, published 2024) can be followed below.

In experiment [1] the target is T1, human calcitonin receptor (hCTR) (Homo sapiens, UniProt P30988).
T1 construct: expressed in transfected cells
T1 sequence (P30988 25-474): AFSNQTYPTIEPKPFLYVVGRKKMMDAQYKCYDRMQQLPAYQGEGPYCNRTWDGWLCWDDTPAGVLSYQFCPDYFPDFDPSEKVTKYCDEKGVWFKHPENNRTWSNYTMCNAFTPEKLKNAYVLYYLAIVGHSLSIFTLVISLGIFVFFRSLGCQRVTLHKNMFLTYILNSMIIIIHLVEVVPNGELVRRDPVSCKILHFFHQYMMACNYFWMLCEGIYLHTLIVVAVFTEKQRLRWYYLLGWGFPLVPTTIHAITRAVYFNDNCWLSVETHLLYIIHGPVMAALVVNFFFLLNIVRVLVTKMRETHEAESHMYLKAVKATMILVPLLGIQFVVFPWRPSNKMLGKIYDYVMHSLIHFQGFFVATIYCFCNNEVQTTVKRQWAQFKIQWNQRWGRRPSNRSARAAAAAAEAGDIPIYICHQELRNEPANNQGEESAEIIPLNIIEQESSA
The experiment is described as follows: cAMP production in 1321N1 cells with stable recombinant expression of human calcitonin receptor (hCTR). The settings on record: cAMP, 1321N1 cells, assay buffer with 0.1% BSA; read-out: EC50 (pM) hCTR. Format: cell-based. An outline of the steps:
(§1)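 EC50 values come from 4-parameter logistic fits of HTRF cAMP signal, normalised to maximal calcitonin or amylin effect. Peptides were tested in duplicate for 30 min at RT in IBMX-containing (0.5 mM) BSA/HEPES buffer pH 7.4 on stable 1321N1 (human CTR, AMYR3) or HEK (rat CTR, AMYR3) lines.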

In experiment [2] the target is T2, human amylin receptor (calcitonin receptor co-expressed with receptor activity modifying protein, RAMP3) (hAMYR3) (Homo sapiens, UniProt O60896+P30988).
T2 construct: expressed in transfected cells
T2 sequence (P30988 25-474): T1 sequence (P30988 25-474)
T2 sequence (O60896 24-148 partner): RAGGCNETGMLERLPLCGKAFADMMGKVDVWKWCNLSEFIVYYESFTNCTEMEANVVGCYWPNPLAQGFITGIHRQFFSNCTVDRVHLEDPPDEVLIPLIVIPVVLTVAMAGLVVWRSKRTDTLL
The experiment is described as follows: cAMP production in 1321N1 cells with stable recombinant expression of human amylin receptor (hAMYR3). In kind it is cell-based. As to conditions: for Ratio (selectivity hAMYR vs hCTR, ratio of EC50 values at the two receptors): EC50 hCTR / EC50 hAMYR3; for EC50: cAMP, 1321N1 cells, assay buffer with 0.1% BSA, read-out: EC50 (pM) hAMYR3. The essentials:
as §1

Numbered stars: 1 amine (or outer) side, 2 acyl side, 3 side chain; on linkers, the order of the positions; unused ones are H or OH. Bridge positions count the residues as written; N and C are the ends. Square brackets hold non-standard residues; d marks the D form. Side chains are listed from the residue outwards. Peptide text beside a SMILES is read from it. * marks the point of attachment. C18 diacid = O=C(O)CCCCCCCCCCCCCCCCC(=O)*; γGlu = O=C(O)[C@H](CCC(=O)[*:2])N[*:1]; Dab = NCC[C@H](N)C(=O)O; Aib = CC(C)(N)C(=O)O

Usually EC50 stands for the concentration that produces a half-maximal response. As for `CC[C@H](C)[C@H](NC(=O)[C@@H]1CCCN1C(=O)CNC(=O)[C@H](Cc1ccccc1)NC(=O)[C@H](CC(N)=O)NC(=O)[C@H](CCN)NC(=O)[C@H](CO)NC(=O)[C@H](CO)NC(=O)[C@H](Cc1c[nH]cn1)NC(=O)C(C)(C)NC(=O)[C@H](CC(C)C)NC(=O)[C@H](Cc1ccccc1)NC(=O)[C@H](CC(N)=O)NC(=O)[C@H](C)NC(=O)[C@H](CC(C)C)NC(=O)[C@H](CCCNC(=N)N)NC(=O)[C@H](CCC(N)=O)NC(=O)[C@@H](NC(=O)[C@H](C)NC(=O)[C@@H]1CSSC[C@H](NC(=O)[C@H](CCCCN)NC(=O)[C@@H](N)CCCCNC(=O)CC[C@H](NC(=O)CCCCCCCCCCCCCCCCC(=O)O)C(=O)O)C(=O)N[C@@H](CC(N)=O)C(=O)N[C@@H]([C@@H](C)O)C(=O)N[C@@H](C)C(=O)N[C@@H]([C@@H](C)O)C(=O)N1)[C@@H](C)O)C(=O)N[C@@H](CC(C)C)C(=O)N1CCC[C@H]1C(=O)N1CCC[C@H]1C(=O)N[C@H](C(=O)N[C@@H](CC(N)=O)C(=O)N[C@H](C(=O)NCC(=O)N[C@@H](CO)C(=O)N[C@@H](CC(N)=O)C(=O)N[C@H](C(=O)N[C@@H](Cc1ccc(O)cc1)C(N)=O)[C@@H](C)O)C(C)C)[C@@H](C)O` [Peptide 126, K(γE-C18diacid)K[CNTATC]ATQRLANFL(Aib)HSS(Dab)NFGPILPPTNVGSNTY-amide] (H-K([γGlu-C18 diacid])KCNTATCATQRLANFL[Aib]HSS[Dab]NFGPILPPTNVGSNTY-NH2; disulfide 3-8), the half-maximal effective concentration (EC50) in experiment [1] worked out at 8450 pM; in experiment [2], 445 pM. The “Ratio (selectivity hAMYR vs hCTR, ratio of EC50 values at the two receptors)” value in experiment [2] was found to be 19.
As to `CC[C@H](C)[C@H](NC(=O)[C@@H]1CCCN1C(=O)CNC(=O)[C@H](Cc1ccccc1)NC(=O)[C@H](CC(N)=O)NC(=O)C(C)(C)NC(=O)[C@H](CO)NC(=O)[C@H](CO)NC(=O)[C@H](Cc1c[nH]cn1)NC(=O)[C@@H](NC(=O)[C@H](CC(C)C)NC(=O)[C@H](Cc1ccccc1)NC(=O)[C@H](CC(N)=O)NC(=O)[C@H](C)NC(=O)[C@H](CC(C)C)NC(=O)[C@H](CCCNC(=N)N)NC(=O)[C@H](CCC(N)=O)NC(=O)[C@@H](NC(=O)[C@H](C)NC(=O)[C@@H]1CSSC[C@H](NC(=O)[C@H](CCCCN)NC(=O)[C@@H](N)CCCCNC(=O)CC[C@H](NC(=O)CCCCCCCCCCCCCCCCC(=O)O)C(=O)O)C(=O)N[C@@H](CC(N)=O)C(=O)N[C@@H]([C@@H](C)O)C(=O)N[C@@H](C)C(=O)N[C@@H]([C@@H](C)O)C(=O)N1)[C@@H](C)O)C(C)C)C(=O)N[C@@H](CC(C)C)C(=O)N1CCC[C@H]1C(=O)N1CCC[C@H]1C(=O)N[C@H](C(=O)N[C@@H](CC(N)=O)C(=O)N[C@H](C(=O)NC(C)(C)C(=O)N[C@@H](CO)C(=O)N[C@@H](CC(N)=O)C(=O)N[C@H](C(=O)N[C@@H](Cc1ccc(O)cc1)C(N)=O)[C@@H](C)O)C(C)C)[C@@H](C)O` [Peptide 81, K(γE-C18diacid)K[CNTATC]ATQRLANFLVHSS(Aib)NFGPILPPTNV(Aib)SNTY-amide] (H-K([γGlu-C18 diacid])KCNTATCATQRLANFLVHSS[Aib]NFGPILPPTNV[Aib]SNTY-NH2; disulfide 3-8; N-terminus assumed), the results for the EC50 in experiment [1] and in experiment [2] were 2760 pM and 404 pM, respectively. Further, the “Ratio (selectivity hAMYR vs hCTR, ratio of EC50 values at the two receptors)” value in experiment [2] was determined as 7.
The corresponding values for `CC[C@H](C)[C@H](NC(=O)[C@@H]1CCCN1C(=O)CNC(=O)[C@H](Cc1ccccc1)NC(=O)[C@H](CC(N)=O)NC(=O)C(C)(C)NC(=O)[C@H](CO)NC(=O)[C@H](CO)NC(=O)[C@H](Cc1c[nH]cn1)NC(=O)[C@@H](NC(=O)[C@@H](CC(C)C)NC(=O)[C@H](Cc1ccccc1)NC(=O)[C@H](CC(N)=O)NC(=O)[C@H](C)NC(=O)[C@H](CC(C)C)NC(=O)[C@H](CCCNC(=N)N)NC(=O)[C@H](CCC(N)=O)NC(=O)[C@@H](NC(=O)[C@H](C)NC(=O)[C@@H]1CSSC[C@H](NC(=O)[C@@H](N)CCCCNC(=O)CC[C@H](NC(=O)CCCCCCCCCCCCCCCCC(=O)O)C(=O)O)C(=O)N[C@@H](CC(N)=O)C(=O)N[C@@H]([C@@H](C)O)C(=O)N[C@@H](C)C(=O)N[C@@H]([C@@H](C)O)C(=O)N1)[C@@H](C)O)C(C)C)C(=O)N[C@@H](CC(C)C)C(=O)N1CCC[C@H]1C(=O)N1CCC[C@H]1C(=O)N[C@H](C(=O)N[C@@H](CC(N)=O)C(=O)N[C@H](C(=O)NCC(=O)N[C@@H](CO)C(=O)N[C@@H](CC(N)=O)C(=O)N[C@H](C(=O)N[C@@H](Cc1ccc(O)cc1)C(N)=O)[C@@H](C)O)C(C)C)[C@@H](C)O` [Peptide 62, K(γE-C18diacid)[CNTATC]ATQRLANF(dL)VHSS(Aib)NFGPILPPTNVGSNTY-amide] (H-K([γGlu-C18 diacid])CNTATCATQRLANF[dL]VHSS[Aib]NFGPILPPTNVGSNTY-NH2; disulfide 2-7) are 7250 pM, 167 pM and 43.
As to `CC[C@H](C)[C@H](NC(=O)[C@@H]1CCCN1C(=O)CNC(=O)[C@H](Cc1ccccc1)NC(=O)[C@H](CC(N)=O)NC(=O)[C@H](CC(N)=O)NC(=O)[C@H](CO)NC(=O)[C@H](CO)NC(=O)[C@H](Cc1c[nH]cn1)NC(=O)C(C)(C)NC(=O)[C@H](CC(C)C)NC(=O)[C@H](Cc1ccccc1)NC(=O)[C@H](CC(N)=O)NC(=O)[C@H](C)NC(=O)[C@H](CC(C)C)NC(=O)[C@H](CCCNC(=N)N)NC(=O)[C@H](CCC(N)=O)NC(=O)[C@@H](NC(=O)[C@H](C)NC(=O)[C@@H]1CSSC[C@H](NC(=O)[C@H](CCCCN)NC(=O)[C@@H](N)CCCCNC(=O)CC[C@H](NC(=O)CCCCCCCCCCCCCCCCC(=O)O)C(=O)O)C(=O)N[C@@H](CC(N)=O)C(=O)N[C@@H]([C@@H](C)O)C(=O)N[C@@H](C)C(=O)N[C@@H]([C@@H](C)O)C(=O)N1)[C@@H](C)O)C(=O)N[C@@H](CC(C)C)C(=O)N1CCC[C@H]1C(=O)N1CCC[C@H]1C(=O)N[C@H](C(=O)N[C@@H](CC(N)=O)C(=O)NC(C)(C)C(=O)NCC(=O)N[C@@H](CO)C(=O)N[C@@H](CC(N)=O)C(=O)N[C@H](C(=O)N[C@@H](Cc1ccc(O)cc1)C(N)=O)[C@@H](C)O)[C@@H](C)O` [Peptide 99, K(γE-C18diacid)K[CNTATC]ATQRLANFL(Aib)HSSNNFGPILPPTN(Aib)GSNTY-amide] (H-K([γGlu-C18 diacid])KCNTATCATQRLANFL[Aib]HSSNNFGPILPPTN[Aib]GSNTY-NH2; disulfide 3-8; N-terminus assumed), the EC50 in experiment [1] turned out to be 1820 pM. In addition, in experiment [2], the “Ratio (selectivity hAMYR vs hCTR, ratio of EC50 values at the two receptors)” value amounted to 0.5 and the EC50 came to 3800 pM.
As for `CC[C@H](C)[C@H](NC(=O)[C@@H]1CCCN1C(=O)CNC(=O)[C@H](Cc1ccccc1)NC(=O)[C@H](CC(N)=O)NC(=O)C(C)(C)NC(=O)[C@H](CO)NC(=O)[C@H](CO)NC(=O)[C@H](Cc1c[nH]cn1)NC(=O)[C@@H](NC(=O)[C@H](CC(C)C)NC(=O)[C@H](Cc1ccccc1)NC(=O)[C@H](CC(N)=O)NC(=O)[C@H](C)NC(=O)[C@H](CC(C)C)NC(=O)[C@H](CCCNC(=N)N)NC(=O)[C@H](CCC(N)=O)NC(=O)[C@@H](NC(=O)[C@H](C)NC(=O)[C@@H]1CSSC[C@H](NC(=O)[C@H](CCCCN)NC(=O)[C@@H](N)CCCCNC(=O)CC[C@H](NC(=O)CCCCCCCCCCCCCCCCC(=O)O)C(=O)O)C(=O)N[C@@H](CC(N)=O)C(=O)N[C@@H]([C@@H](C)O)C(=O)N[C@@H](C)C(=O)N[C@@H]([C@@H](C)O)C(=O)N1)[C@@H](C)O)C(C)C)C(=O)N[C@@H](CC(C)C)C(=O)N1CCC[C@H]1C(=O)N1CCC[C@H]1C(=O)N[C@H](C(=O)N[C@@H](CC(N)=O)C(=O)N[C@H](C(=O)NCC(=O)N[C@@H](CO)C(=O)N[C@@H](CC(N)=O)C(=O)N[C@H](C(=O)NC(C)(C)C(N)=O)[C@@H](C)O)C(C)C)[C@@H](C)O` [Peptide 85, K(γE-C18diacid)K[CNTATC]ATQRLANFLVHSS(Aib)NFGPILPPTNVGSNT(Aib)-amide] (H-K([γGlu-C18 diacid])KCNTATCATQRLANFLVHSS[Aib]NFGPILPPTNVGSNT[Aib]-NH2; disulfide 3-8; N-terminus assumed), in experiment [1], the EC50 turned out to be 3100 pM. Besides, in experiment [2], the “Ratio (selectivity hAMYR vs hCTR, ratio of EC50 values at the two receptors)” value is reported as 4 and the EC50 came out at 806 pM.
